From ChEMBL document CHEMBL1201862, “PubChem BioAssay data set” (2004) come the findings set out here.

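96-well plates; 48 h exposure; 5 concentrations. Endpoints by linear interpolation between flanking doses. Not reached: highest tested concentration assigned. At the GI50, growth is halved.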 Calls of active or inactive are those of the source. No stated cut-off is given here; in the data, active = GI50 up to about 1.1 µM and inactive = higher.

Some test systems named below: M14; U-251; SF-268; ACHN; SW-620; OVCAR-3; HT-29; Hs-578T; OVCAR-5; SF-539; UO-31; TK-10; COLO 205; HCC 2998; SNB-75; MCF7; CCRF-CEM; SN12C; MDA-MB-435; RXF 393.
Holding throughout (assay): NCI anticancer screen, dose series, 48 h

As for `NC1CC(=O)c2c(Cl)sc(Cl)c21` (centres undefined), the GI50 with M14 was 3.85 µM (inactive); in the test with U-251, 3.77 µM (inactive); in the test with SF-268, 15.8 µM (inactive); in the test with ACHN, 2.33 µM (inactive); in the test with SW-620, 1.68 µM (inactive); with OVCAR-3, 6.47 µM (inactive). The GI50 is 1.72 µM (inactive) with HT-29; 19.2 µM (inactive) in the test on Hs-578T; 19.3 µM (inactive) in the test on OVCAR-5; 2.37 µM (inactive) with SF-539; 9.86 µM (inactive) with UO-31; 2.43 µM (inactive) in the test on TK-10. In addition, the GI50 was 1.63 µM (inactive) with COLO 205; 10.1 µM (inactive) in the test on HCC 2998; 14.1 µM (inactive) in the test with SNB-75; 1.82 µM (inactive) in the test with MCF7; 0.885 µM (active) with CCRF-CEM; 2.05 µM (inactive) with SN12C. Further, the GI50 in the test on MDA-MB-435 is 4.62 µM (inactive); with RXF 393, 1.45 µM (inactive).

In the case of `COc1c(/C=C/C=O)cc2c(c1OC)OCO2`, the GI50 in the test on M14 is 24.2 µM (inactive); with U-251, 23.2 µM (inactive); with SF-268, 41.1 µM (inactive); in the test on ACHN, 27.3 µM (inactive); with SW-620, 51.2 µM (inactive); with OVCAR-3, 33.2 µM (inactive). For the same compound, the GI50 in the test on HT-29 was 24.2 µM (inactive); with Hs-578T, 55.8 µM (inactive); in the test on OVCAR-5, 7.41 µM (inactive); with SF-539 it was 35 µM (inactive); with UO-31 it was 35.9 µM (inactive); with TK-10, 40.4 µM (inactive). The GI50 is > 100 µM (inactive) in the test on COLO 205; 29.4 µM (inactive) with HCC 2998; > 100 µM (inactive) in the test on SNB-75; 28 µM (inactive) with MCF7; 22.1 µM (inactive) in the test on CCRF-CEM; 24.2 µM (inactive) in the test with SN12C. Besides, the GI50 in the test with MDA-MB-435 is 49.3 µM (inactive); in the test with RXF 393 it was > 100 µM (inactive).

For the compound `CC(=O)Nc1c(S(=O)(=O)c2ccccc2)c(C)c(C)n1CCN(C)C`, the GI50 was 70.3 µM (inactive) with M14; > 100 µM (inactive) with U-251; > 100 µM (inactive) with SF-268; > 100 µM (inactive) with ACHN; > 100 µM (inactive) with SW-620; > 100 µM (inactive) in the test on OVCAR-3. Besides, the GI50 in the test with HT-29, in the test on Hs-578T, in the test on OVCAR-5, in the test on SF-539, with UO-31 and in the test with TK-10 was > 100 µM (inactive) in each case. The GI50 in the test with COLO 205, in the test on HCC 2998, in the test with SNB-75, in the test on MCF7, in the test with CCRF-CEM and with SN12C was > 100 µM (inactive) throughout. Also, the GI50 in the test with MDA-MB-435 and in the test on RXF 393 was > 100 µM (inactive) in each case.

Consider `C[C@@H]1S[C@H](c2c(Cl)cccc2Cl)N2Cc3ccccc3N=C12`, for which the GI50 in the test with M14, with U-251, in the test on SF-268, in the test on ACHN, in the test on SW-620 and with OVCAR-3 was > 100 µM (inactive) in each case. Further, the GI50 in the test on Hs-578T, with OVCAR-5, in the test with SF-539, in the test with UO-31, in the test on TK-10 and with COLO 205 was > 100 µM (inactive) in each case. Further, the GI50 with HCC 2998, in the test on SNB-75, in the test with MCF7, with CCRF-CEM, in the test on SN12C and in the test on MDA-MB-435 was > 100 µM (inactive) throughout. In addition, the GI50 in the test with RXF 393 was > 100 µM (inactive).

As for `COc1cc(/C=C2\C[C@H]3[C@@H]4CC=C5C[C@@H](OC(C)=O)CC[C@]5(C)[C@H]4CC[C@]3(C)\C2=N\O)cc(OC)c1OC`, the GI50 in the test on M14 was 5.73 µM (inactive); in the test on U-251 it was 7.41 µM (inactive); in the test on SF-268, 7.82 µM (inactive); with ACHN, 3.75 µM (inactive); in the test on SW-620 it was 7 µM (inactive); in the test on OVCAR-3, 6.27 µM (inactive). The GI50 with HT-29 is 5.15 µM (inactive); with Hs-578T, 4.37 µM (inactive); in the test on OVCAR-5 it was 15 µM (inactive); in the test on SF-539 it was 4.33 µM (inactive); with UO-31, 3.86 µM (inactive); with TK-10 it was 13.7 µM (inactive). For the same compound, the GI50 in the test on COLO 205 is 3.76 µM (inactive); in the test on HCC 2998 it was 16 µM (inactive); with SNB-75 it was 2.5 µM (inactive); with MCF7 it was 4.2 µM (inactive); in the test with CCRF-CEM, 4.08 µM (inactive); with SN12C, 6.37 µM (inactive). For the same compound, the GI50 was 3.82 µM (inactive) in the test with MDA-MB-435 and 0.942 µM (active) in the test on RXF 393.

In the case of `Cn1cnc([N+](=O)[O-])c1Sc1nc(N)nc2c1ncn2[C@H]1C[C@H](O)[C@@H](CO)O1`, the GI50 in the test with M14 was 1.16 µM (inactive); in the test with U-251 it was 12 µM (inactive); in the test with SF-268 it was 1.77 µM (inactive); in the test with ACHN it was 3.52 µM (inactive); with SW-620 it was 6.5 µM (inactive); in the test with OVCAR-3, 3.44 µM (inactive). Moreover, the GI50 was 3.54 µM (inactive) in the test on HT-29; 10.3 µM (inactive) with Hs-578T; 3.08 µM (inactive) in the test with OVCAR-5; 10.2 µM (inactive) with SF-539; 3.43 µM (inactive) in the test on UO-31; 3.98 µM (inactive) with TK-10. Also, the GI50 in the test on COLO 205 was 4.63 µM (inactive); in the test on HCC 2998, 13.8 µM (inactive); in the test on SNB-75 it was 5.68 µM (inactive); in the test with MCF7, 2.61 µM (inactive); in the test on CCRF-CEM, 2.88 µM (inactive); in the test with SN12C it was 5.16 µM (inactive). For the same compound, the GI50 in the test on MDA-MB-435 was 2.29 µM (inactive); in the test on RXF 393, 8.32 µM (inactive).

Take `CC(C)=CCc1c2c(c(O)c3c(=O)c4c(oc13)-c1ccc(O)cc1OC4C=C(C)C)C=CC(C)(C)O2` (centres undefined): the GI50 in the test on M14 was 18 µM (inactive); in the test on U-251 it was 12.2 µM (inactive); with SF-268, 14.2 µM (inactive); in the test with ACHN it was 11.8 µM (inactive); in the test with SW-620, 8.32 µM (inactive); with OVCAR-3 it was 12.3 µM (inactive). The GI50 in the test on HT-29 is 13 µM (inactive); in the test with Hs-578T, 2.37 µM (inactive); in the test with OVCAR-5, 20.2 µM (inactive); in the test on SF-539, 17.2 µM (inactive); with UO-31 it was 18.3 µM (inactive); with TK-10, 14.8 µM (inactive). The GI50 was 21 µM (inactive) in the test with COLO 205; 3.34 µM (inactive) with HCC 2998; 11.9 µM (inactive) in the test with SNB-75; 13.5 µM (inactive) in the test with MCF7; 3.99 µM (inactive) in the test on CCRF-CEM; 6.35 µM (inactive) in the test on SN12C. Further, the GI50 is 10.6 µM (inactive) in the test with MDA-MB-435 and 7.29 µM (inactive) in the test with RXF 393.

For the compound `CC(C)C1C(=O)N(c2c(F)c(F)c(F)c(F)c2F)C(=S)N1CC[S+]([O-])c1ccccc1` (centres undefined), the GI50 was 15.7 µM (inactive) in the test on M14; 14.8 µM (inactive) in the test on U-251; 16.7 µM (inactive) in the test with SF-268; 18.6 µM (inactive) in the test with ACHN; 18.3 µM (inactive) with SW-620; 16.6 µM (inactive) in the test on OVCAR-3. Besides, the GI50 in the test with HT-29 is 14 µM (inactive); in the test with Hs-578T, 30.2 µM (inactive); with OVCAR-5, 17.7 µM (inactive); with SF-539, 19.7 µM (inactive); in the test with UO-31 it was 14.8 µM (inactive); in the test with TK-10, 26.9 µM (inactive). The GI50 in the test on COLO 205 is 15.5 µM (inactive); with HCC 2998, 8.47 µM (inactive); in the test on SNB-75 it was 26.4 µM (inactive); in the test on MCF7, 16.6 µM (inactive); with CCRF-CEM it was 18.3 µM (inactive); in the test on SN12C, 15.8 µM (inactive). The GI50 was 17.5 µM (inactive) with MDA-MB-435 and 17.8 µM (inactive) with RXF 393.

For `Cc1ccc(S(=O)(=O)NC(CO)C(=O)O)cc1` (centres undefined), the GI50 in the test on M14, with U-251, in the test with SF-268, with ACHN, in the test on SW-620 and with OVCAR-3 was > 100 µM (inactive) throughout. The GI50 in the test on HT-29, in the test on Hs-578T, with OVCAR-5, in the test with SF-539, in the test with UO-31 and in the test on TK-10 was > 100 µM (inactive) in each case. Further, the GI50 with COLO 205, in the test on HCC 2998, with SNB-75, with MCF7, in the test with CCRF-CEM and in the test on SN12C was > 100 µM (inactive) throughout. For the same compound, the GI50 with MDA-MB-435 and in the test with RXF 393 was > 100 µM (inactive) throughout.

Consider `COc1cc(OCCN(C)C)c2[nH]c(C(=O)N3CC(CCl)c4ccc(N)cc43)cc2c1` (centres undefined), for which the GI50 in the test with M14 is 0.0632 µM (active); in the test with U-251, 0.0432 µM (active); in the test on SF-268, 0.0264 µM (active); in the test on ACHN it was 0.0178 µM (active); in the test on SW-620 it was 0.0441 µM (active); in the test with OVCAR-3, 0.0282 µM (active). In addition, the GI50 with HT-29 was < 0.0246 µM (active); in the test with Hs-578T it was 0.361 µM (active); with OVCAR-5, 0.0656 µM (active); with SF-539, 0.0748 µM (active); with UO-31, 0.0195 µM (active); in the test on TK-10, 0.0973 µM (active). Also, the GI50 with COLO 205 is 0.0395 µM (active); in the test on HCC 2998, 0.0265 µM (active); with SNB-75, 0.0676 µM (active); in the test with MCF7 it was 0.0139 µM (active); in the test on CCRF-CEM, 0.0199 µM (active); in the test with SN12C, 0.0597 µM (active). Besides, the GI50 is 0.0475 µM (active) in the test with MDA-MB-435 and 0.0204 µM (active) in the test with RXF 393.
